Article PMC3150407, “Differential Inhibitor Sensitivity between Human Kinases VRK1 and VRK2” (PLoS ONE, 2011)
Read-outs that look alike come from different tables or passages of the source.

Key:
GST-VRK2A [1] = target: T1, GST-VRK2A (Homo sapiens, UniProt Q86Y07); assay: In vitro kinase assay, GST-VRK2A phosphorylation of histone H3; assay type: biochemical
T1 construct: a full-length protein of 508 aminoacids (known as VRK2 and VRK2A); made in house; host or cells: E. coli BL21

Cdk1 = conditions: Table S1, known target value; no reference given; read-out: Kinase target (IC50) Cdk1; cited from earlier work
GST-VRK2A [2] = target: T1, GST-VRK2A; assay: In vitro kinase assay, GST-VRK2A autophosphorylation; assay type: biochemical; conditions: for IC50: read-out: IC50 (µM) GST-VRK2A Auto-phosphorylation
GST-VRK1 [3] = target: T2, GST-VRK1 (Homo sapiens, UniProt Q99986); assay: In vitro kinase assay, GST-VRK1 autophosphorylation; assay type: biochemical; conditions: 5 µM ATP; average of three experiments, ± standard deviation; No inhibition is lack of effect at 100 µM
T2 construct: made in house
T2 sequence (Q99986 1-396): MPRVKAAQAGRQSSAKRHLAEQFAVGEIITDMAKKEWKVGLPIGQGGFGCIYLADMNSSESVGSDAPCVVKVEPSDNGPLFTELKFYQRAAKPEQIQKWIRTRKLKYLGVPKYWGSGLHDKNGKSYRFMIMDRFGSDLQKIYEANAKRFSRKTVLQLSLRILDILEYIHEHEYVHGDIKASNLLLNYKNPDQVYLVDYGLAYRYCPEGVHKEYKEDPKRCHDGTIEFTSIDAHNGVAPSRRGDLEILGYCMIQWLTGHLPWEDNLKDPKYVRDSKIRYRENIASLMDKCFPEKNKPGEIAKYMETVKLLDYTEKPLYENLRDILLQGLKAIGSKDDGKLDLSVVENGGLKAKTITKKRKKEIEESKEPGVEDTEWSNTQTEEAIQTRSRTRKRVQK

Cdk1/cyclinB = conditions: read-out: Fifty percent inhibition of Cdk1/cyclinB; cited from earlier work
GST-VRK1 [4] = target: T2, GST-VRK1; assay: In vitro kinase assay, GST-VRK1 phosphorylation of histone H3; assay type: biochemical; conditions: 5 µM ATP; average of three experiments, ± standard deviation; No inhibition is lack of effect at 100 µM
VRK2A = target: T3, VRK2A (Homo sapiens, UniProt Q86Y07); assay: In vitro kinase assay, VRK2A kinase activity (autophosphorylation and H3 phosphorylation); assay type: biochemical
T3 construct: a full-length protein of 508 aminoacids (known as VRK2 and VRK2A); made in house; host or cells: E. coli BL21

B-RafV600E = conditions: Table S1, known target value; no reference given; read-out: Kinase target (IC50) B-RafV600E; cited from earlier work
human VRK1 = target: T4, human VRK1 (Homo sapiens, UniProt Q99986); assay: In vitro kinase assay, VRK1 kinase activity (autophosphorylation and H3 phosphorylation); assay type: biochemical
T4 construct: made in house
T4 sequence (Q99986 1-396): T2 sequence (Q99986 1-396)

B-Raf = conditions: Table S1, known target value; no reference given; read-out: Kinase target (IC50) B-Raf; cited from earlier work
JNK = conditions: Table S1, known target value; no reference given; read-out: Kinase target (IC50) JNK; cited from earlier work
Aurora C kinase = conditions: Table S1, known target value; no reference given; cited from earlier work
VRK2B = target: T5, VRK2B (Homo sapiens, UniProt Q86Y07); assay: In vitro kinase assay, VRK2B kinase activity; assay type: biochemical; conditions: inhibitor 100 µM, 5 µM ATP
T5 construct: made in house; host or cells: E. coli BL21

GSK-3β = conditions: Table S1, known target value; no reference given; read-out: Kinase target (IC50) GSK3β; cited from earlier work
CDK = conditions: read-out: Kinase target (IC50) CDK; Table S1, known target value; no reference given; cited from earlier work
[5] = inhibitor 100 µM, 5 µM ATP, autophosphorylation and H3 phosphorylation
[6] = 5 µM ATP, average of three experiments, ± standard deviation, No inhibition is lack of effect at 100 µM

T1 sequence (Q86Y07 whole entry): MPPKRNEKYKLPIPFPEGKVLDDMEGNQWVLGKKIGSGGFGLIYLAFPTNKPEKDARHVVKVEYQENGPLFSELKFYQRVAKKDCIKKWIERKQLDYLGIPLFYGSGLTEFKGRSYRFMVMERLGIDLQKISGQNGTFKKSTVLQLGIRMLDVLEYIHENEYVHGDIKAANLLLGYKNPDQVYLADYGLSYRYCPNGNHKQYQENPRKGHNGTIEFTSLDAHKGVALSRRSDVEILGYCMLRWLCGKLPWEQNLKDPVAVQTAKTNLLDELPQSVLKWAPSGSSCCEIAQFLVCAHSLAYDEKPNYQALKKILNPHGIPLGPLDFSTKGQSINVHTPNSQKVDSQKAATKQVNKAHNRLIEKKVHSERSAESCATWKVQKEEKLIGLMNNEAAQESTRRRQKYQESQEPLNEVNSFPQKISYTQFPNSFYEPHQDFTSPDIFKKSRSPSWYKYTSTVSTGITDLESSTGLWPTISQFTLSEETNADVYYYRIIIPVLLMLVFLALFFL
T3 sequence (Q86Y07 whole entry): as above
T5 sequence (Q86Y07 1-397 isoform Q86Y07-2): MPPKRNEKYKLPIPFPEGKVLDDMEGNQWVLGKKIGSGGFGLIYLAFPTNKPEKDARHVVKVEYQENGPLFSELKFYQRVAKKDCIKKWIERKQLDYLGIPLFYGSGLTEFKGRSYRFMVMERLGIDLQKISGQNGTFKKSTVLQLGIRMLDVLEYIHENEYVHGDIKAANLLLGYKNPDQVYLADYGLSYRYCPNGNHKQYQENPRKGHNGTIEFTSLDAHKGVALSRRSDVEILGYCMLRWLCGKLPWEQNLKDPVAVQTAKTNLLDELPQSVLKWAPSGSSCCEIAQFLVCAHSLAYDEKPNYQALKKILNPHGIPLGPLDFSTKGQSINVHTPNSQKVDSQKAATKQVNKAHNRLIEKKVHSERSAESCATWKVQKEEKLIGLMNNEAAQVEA

IC50 (GST-VRK2A [1]) [µM] | IC50 (GST-VRK2A [2]) [µM] | IC50 (µM) GST-VRK1 Auto- phosphorylation (GST-VRK1 [3]) | IC50 (µM) GST-VRK1 H3 phosphorylation (GST-VRK1 [4]) | Compound | Effect on VRK2 (VRK2A) kinase activity at 100 µM inhibitor (in words) (VRK2A; [5]) | Effect on VRK1 kinase activity at 100 µM inhibitor (in words) (human VRK1; [5]) | further results
10.8 ± 1.29 | 11.2 ± 1.33 | No inhibition | No inhibition | O=C1Nc2ccccc2C1=Cc1c(Cl)[nH]c2ccccc12 [Cdk1 Inhibitor, 3-(2-Chloro-3-indolylmethylene)-1,3-dihydroindol-2-one] | more sensitive |  | IC50 (Cdk1): 5.8 µM; IC50 (Cdk1/cyclinB): 5.8 µM; IC50 (VRK2A; 5 µM ATP, H3 phosphorylation or autophosphorylation, read-out: Concentration giving fifty percent inhibition of VRK2A activity): 4 µM
 |  | No inhibition | No inhibition | OCCn1cc(-c2ccc3c(c2)CCC3=NO)c(-c2ccncc2)n1 [GDC-0879, 5-[1-(2-Hydroxy-ethyl)-3-pyridin-4-yl-1H-pyrazol-4-yl]-indan-1-one oxime] | None of them was able to induce a significant inhibition | None of them was able to induce a significant inhibition | IC50 (B-RafV600E): 0.00013 µM
11.1 ± 1.21 | 27.6 ± 1.09 | No inhibition | No inhibition | Oc1c2ccccc2c2c3c(cccc13)N=N2 [SP600125, Anthra[1,9-cd]pyrazol-6(2H)-one, 1,9-pyrazoloanthrone] | None of them was able to induce a significant inhibition | None of them was able to induce a significant inhibition | IC50 (JNK): 0.04 µM
 |  | No inhibition | No inhibition | Cc1cc(Nc2cc(N3CCN(C)CC3)nc(Sc3ccc(NC(=O)C4CC4)cc3)n2)[nH]n1 [VX-680, N-[4-[4-(4-Methylpiperazin-1-yl)-6-(3-methyl-1H-pyrazol-5-ylamino)pyrimidin-2-sulfanyl]phenyl]-cyclopropanecarboxamide] | without noticeable inhibitory effect | without noticeable inhibitory effect | IC50 (Aurora C kinase): […]; Effect on VRK2B kinase activity at 100 µM inhibitor (in words) (VRK2B): without noticeable inhibitory effect
 |  |  |  | Indirubin-3’-monoxime |  |  | Effect on VRK1 kinase activity at 100 µM inhibitor (in words) (human VRK1): little effect; Effect on VRK2 (VRK2A) kinase activity at 100 µM inhibitor (in words) (VRK2A): little effect; IC50 (GSK-3β): 0.005 to 0.05 µM; IC50 (CDK): 0.05 to 0.1 µM

Compound | IC50 (GST-VRK2A [1]) [µM] | IC50 (GST-VRK2A [2]) [µM] | IC50 (µM) GST-VRK1 Auto- phosphorylation (GST-VRK1 [3]) | IC50 (µM) GST-VRK1 H3 phosphorylation (GST-VRK1 [4]) | Effect on VRK2 (VRK2A) kinase activity at 100 µM inhibitor (in words) (VRK2A; [5]) | Effect on VRK1 kinase activity at 100 µM inhibitor (in words) (human VRK1; [5]) | further results
CCCS(=O)(=O)Nc1ccc(F)c(C(=O)c2c[nH]c3ncc(Cl)cc23)c1F [PLX-4720, N-(3-(5-chloro-1H-pyrrolo[2,3-b]pyridine-3-carbonyl)-2,4-difluorophenyl)propane-1-sulfonamide] |  |  | No inhibition | No inhibition | None of them was able to induce a significant inhibition | None of them was able to induce a significant inhibition | IC50 (µM) GST-VRK2A H3 phosphorylation (GST-VRK2A [1]; [6]): No inhibition; IC50 (µM) GST-VRK2A Auto-phosphorylation (GST-VRK2A [2]; [6]): No inhibition; IC50 (B-Raf): […]
